In article PMC9289672, “Optimization of Antibacterial Activity in Tibetan Swine α-Helix Peptide TP by Site-Directed Mutagenesis” (Frontiers in Microbiology, 2022):
Where no end group is shown, it is not given here.

How the values were obtained:
[1] = tested on: Enterococcus faecalis ATCC 29212
Source text: (§1) The bacteria strains Escherichia coli ATCC 25922, Escherichia coli UB1005, Salmonella typhimurium ATCC 14028, Salmonella typhimurium C7731, Pseudomonas aeruginosa ATCC 27853, Pseudomonas aeruginosa PAO1, Staphylococcus aureus ATCC 29213, Staphylococcus aureus ATCC 25923, Methicillin-resistant Staphylococcus aureus (MRSA) 43300, Enterococcus faecalis ATCC 29212, and Staphylococcus epidermidis ATCC 12228 were obtained from the College of Veterinary Medicine, Northeast Agricultural University (Harbin, China).
(§2) The bacteria were cultured overnight in the MHB medium and transferred to the new MHB the next day until the bacteria reached the exponential growth stage. The bacteria were diluted with MHB to 2 × 10^5 CFU/ml. About 50 μl of polypeptide and equal volume of bacterial suspension was added to a 96-well plate to give the final concentration of polypeptide between 1 and 128 μm. The last two columns are negative (MHB only) and positive (bacterial and MHB) controls and incubated at 37°C for 18–24 h. Optical density was measured at an absorbance wavelength of 492 nm using a microplate reader (Tecan GENios F129004, Tecan, Austria). At least three independent measurements were taken. Each trial was conducted two times in parallel. A total of three independent assays were carried out.

[2] = tested on: Escherichia coli ATCC 25922
Source text: as §1, §2

Escherichia coli UB1005 = conditions: MHB, bacteria diluted to 2 × 10^5 CFU/ml, peptide 1-128 μm, 37°C 18-24 h, OD 492 nm; three independent assays, two in parallel
Source text: as §1, §2

[3] = tested on: Methicillin-resistant Staphylococcus aureus (MRSA) 43300; conditions: Methicillin-resistant 43300
Source text: as §1, §2

[4] = tested on: Pseudomonas aeruginosa ATCC 27853
Source text: as §1, §2

[5] = tested on: Pseudomonas aeruginosa PAO1
Source text: as §1, §2

[6] = tested on: Salmonella typhimurium ATCC 14028
Source text: as §1, §2

[7] = tested on: Salmonella typhimurium C7731; conditions: MHB, bacteria diluted to 2 × 10^5 CFU/ml, peptide 1-128 μm, 37°C 18-24 h, OD 492 nm; three independent assays, two in parallel
Source text: as §1, §2

[8] = tested on: Staphylococcus aureus ATCC 25923
Source text: as §1, §2

[9] = tested on: Staphylococcus aureus ATCC 29213
Source text: as §1, §2

[10] = tested on: Staphylococcus epidermidis ATCC 12228
Source text: as §1, §2

Gram-negative bacteria = assay: Geometric mean of MIC and therapeutic index; type: cell-based; conditions: for Therapeutic index (TI), Gram-negative bacteria: MHC/GM, 128 μm used when 50% hemolysis not observed at 128 μm
Experimental: as §2
(§3) Trp is a hydrophobic amino acid with aromatic side chains. It is a special amino acid in peptide design. Previous studies have pointed out that introducing amino acids will also bring toxicity while improving activity. […] For further evaluating the cell selectivity of the peptides, we also calculated the SI which defined as the ratio of MHC to the geometric mean (GM) (Dufourc, [2008]).

Gram-positive bacteria = assay: Geometric mean of MIC and therapeutic index; type: cell-based; conditions: for Therapeutic index (TI), Gram-positive bacteria: MHC/GM, 128 μm used when 50% hemolysis not observed at 128 μm
Experimental: as §2, §3

all strains in Table 2 = assay: Geometric mean of MIC and therapeutic index; type: cell-based; conditions: for Therapeutic index (TI) / selectivity index (SI), All: MHC/GM, 128 μm used when 50% hemolysis not observed at 128 μm
Experimental: as §2
Trp is a hydrophobic amino acid with aromatic side chains. It is a special amino acid in peptide design. Previous studies have pointed out that introducing amino acids will also bring toxicity while improving activity. Therefore, at the beginning of the design, we predicted that selecting Trp as hydrophobic amino acid to substitute H-H position would bring certain toxicity to the peptide. Thus, as expected, the introduction of Trp increases the activity and toxicity of these peptides. […] Meanwhile, the virulence of TP(i+4) 1&2&5&6 and TP(i+4) 1&2&6&7 was lower than that of TP(i+4) 1&2&5&7. We infer that the location of hydrophobic centers can effectively reduce peptide toxicity by Trp substitution. For further evaluating the cell selectivity of the peptides, we also calculated the SI which defined as the ratio of MHC to the geometric mean (GM) (Dufourc, [2008]).

[11] = tested on: hRBCs (human red blood cells)
Experimental: The cytotoxicity of each peptide was assessed with IPEC-J12 and HEK 293T cells. […] Each trial was conducted two times in parallel. A total of three independent assays were carried out.

[12] = strains of Table 2, 128 μm used when no activity at 128 μm

| Substance | MIC, E. faecalis 29212 [1] [µM] | MIC, E. coli 25922 [2] [µM] | MIC, E. coli UB1005 (Escherichia coli UB1005) [µM] | MIC, S. aureus 43300 [3] [µM] | MIC, P. aeruginosa 27853 [4] [µM] | MIC, P. aeruginosa PAO1 [5] [µM] | MIC, S. typhimurium 14028 [6] [µM] | MIC, S. typhimurium 7731 [7] [µM] | MIC, S. aureus 25923 [8] [µM] | MIC, S. aureus 29213 [9] [µM] | MIC, S. epidermidis 12228 [10] [µM] | Therapeutic index (TI), Gram-negative bacteria (Gram-negative bacteria) | Therapeutic index (TI), Gram-positive bacteria (Gram-positive bacteria) | Therapeutic index (TI) / selectivity index (SI), All (all strains in Table 2) | MHC (concentration of peptide that causes hemolysis of 50% of human red blood cells) [11] [µM] | Geometric mean (GM) of MIC, Gram-negative bacteria (Gram-negative bacteria; [12]) [µM] | Geometric mean (GM) of MIC, Gram-positive bacteria (Gram-positive bacteria; [12]) [µM] | Geometric mean (GM) of MIC, All (all strains in Table 2; all strains in Table 2, 128 μm used when no activity at 128 μm) [µM] |
| --- | --- | --- | --- | --- | --- | --- | --- | --- | --- | --- | --- | --- | --- | --- | --- | --- | --- | --- |
| AKVVNKLTKKVAKLLK-NH2 [TP(i+4) 2&3&4] | >128 | 16 | 16 | >128 | 128 | 8 | 64 | 64 | >128 | >128 | >128 | 4.00 | 1.00 | 2.00 | >128 |  |  |  |
| AKVVNKLTGKVAGLLK-NH2 [TP(i+4) 3&4] | >128 | 128 | 64 | >128 | >128 | 128 | >128 | >128 | >128 | >128 | >128 | 1.12 | 1.00 | 1.06 | >128 |  |  |  |
| ASVVNKLTKKVAKLLK-NH2 [TP(i+4) 2&4] | >128 | 8 | 8 | >128 | 32 | 8 | 64 | 16 | >128 | >128 | >128 | 8.00 | 1.00 | 2.83 | >128 |  |  |  |
| AKVVNKLTGGVAGLLK-NH2 [TP(i+4) 3] | >128 | >128 | >128 | >128 | >128 | >128 | >128 | >128 | >128 | >128 | >128 | 1.00 | 1.00 | 1.00 | >128 |  |  |  |
| ASVVKKLTKKVAKLLK-NH2 [TP(i+4) 1&2&4] | >128 | 4 | 4 | >128 | 32 | 8 | 64 | 32 | >128 | >128 | >128 | 8.90 | 1.00 | 2.98 | >128 |  |  |  |
| ASVVKKLTKKVAGLLK-NH2 [TP(i+4) 1&4] | >128 | 8 | 8 | >128 | 32 | 16 | 64 | 32 | >128 | >128 | >128 |  | 1.00 | 2.56 | >128 |  |  |  |
| ASVVNKLTKGVAKLLK-NH2 [TP(i+4) 2] | >128 | 16 | 8 | >128 | 64 | 32 | 128 | 64 | >128 | >128 | >128 | 3.56 | 1.00 | 1.89 | >128 |  |  |  |
| ASVVKKLTKGVAGLLK-NH2 [TP(i+4) 1] | >128 | 16 | 16 | >128 | 64 | 64 | 128 | 64 | >128 | >128 | >128 | 2.83 | 1.00 | 1.68 | >128 |  |  |  |
| AKVVKKLTKGVAKLLK-NH2 [TP(i+4) 1&2&3] | >128 | 32 | 8 | >128 | 64 | 16 | 128 | 64 | >128 | >128 | >128 | 3.56 | 1.00 | 1.89 | >128 |  |  |  |
| ASVVNKLTGKVAGLLK-NH2 [TP(i+4) 4] | >128 | 16 | 16 | >128 | 64 | 64 | 128 | 64 | >128 | >128 | >128 | 2.83 | 1.00 | 1.68 | >128 |  |  |  |
| AKVVKKLTKGVAGLLK-NH2 [TP(i+4) 1&3] | >128 | 64 |  | >128 | 128 | 64 | >128 |  | >128 | >128 | >128 |  |  |  | >128 | 71.84 | 128.00 | 95.89 |
